Data set [1] deals with T1, Human sEH (Homo sapiens, UniProt P34913).
T1 sequence (P34913 1-555): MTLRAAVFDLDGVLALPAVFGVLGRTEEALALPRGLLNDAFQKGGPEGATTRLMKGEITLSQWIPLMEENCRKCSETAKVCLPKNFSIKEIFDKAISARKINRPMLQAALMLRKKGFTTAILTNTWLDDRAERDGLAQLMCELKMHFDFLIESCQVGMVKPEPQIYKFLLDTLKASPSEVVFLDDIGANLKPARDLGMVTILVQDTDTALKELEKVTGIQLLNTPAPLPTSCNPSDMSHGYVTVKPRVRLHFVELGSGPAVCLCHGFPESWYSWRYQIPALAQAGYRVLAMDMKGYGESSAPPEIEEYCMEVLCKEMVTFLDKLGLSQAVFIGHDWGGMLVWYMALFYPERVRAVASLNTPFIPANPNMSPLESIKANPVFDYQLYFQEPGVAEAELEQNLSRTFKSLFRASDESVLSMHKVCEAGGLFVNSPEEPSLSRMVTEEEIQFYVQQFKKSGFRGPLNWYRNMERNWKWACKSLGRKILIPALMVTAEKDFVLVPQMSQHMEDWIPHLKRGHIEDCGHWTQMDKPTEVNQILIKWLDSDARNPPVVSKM
The data set can be described thus: Fluorescent assay with CMNPC substrate (Example 2). Format: biochemical. How it is done:
A fluorescent assay was employed for high throughput screening (HTS) of inhibitors of sEH. Cyano(2-methoxynaphthalen-6-yl)methyl trans-(3-phenyloxyran-2-yl)methyl carbonate (CMNPC) was used as the fluorescent substrate. Human sEH (1 nM) was incubated with a compound of Formula I for 5 min in pH 7.0 Bis-Tris/HCl buffer (25 mM) containing 0.1 mg/mL of BSA at 30° C. prior to substrate introduction ([S]=5 μM). […] IC50 values are the average of the three replicates with at least two datum points above and at least two below the IC50.

Data set [2] can be described thus: In vitro human liver microsomal metabolic stability (Example 4). Format: in vitro ADME. To be noted: for CLint scaled / half-life: pooled human liver microsomes; for CLint scaled: apparent intrinsic clearance, human liver microsomes; for half-life: half life in human liver microsomes, averages of duplicate determination, read-out: hLM t1/2. On the procedure:
The stability of sEH inhibitors in a human liver microsomal assay was determined as a predictor of in vivo oxidative metabolism. Microsomal stability was assessed in pooled human liver microsomes (Celsis, Edison, N.J.). All reactions were carried out for 90 min at 37° C. in an NADPH-generating system consisting of glucose 6-phosphate, glucose 6-phosphate dehydrogenase, and NADP^+ (Sigma, St. Louis, Mo.). Positive control incubations proceeded with 7-ethoxycoumarin as the substrate. Reactions were terminated by adding methanol. The mixtures were centrifuged and the supernatants were evaporated. The residues were reconstituted in mobile phase (85% ACN; 15% H2O) and subjected to LC/MS analysis.
A general note: Liver microsomes are vesicles of endoplasmic reticulum, rich in cytochrome P450 enzymes.

Data set [3] has as its target T1, Human sEH. The data set can be described thus: biochemical. To be noted: Table 1.

The values below come from US20140336193A1, “POTENT NON-UREA INHIBITORS OF SOLUBLE EPOXIDE HYDROLASE” (priority 2012, published 2014).

pIC50: −log10 of the molar value.

A word on the pIC50: it is the IC50 on a negative log10 scale, so that one unit is a factor of ten. Low values mean a high IC50, high ones a low IC50. Broadly, the CLint scaled is the rate of metabolic loss divided by the concentration. With `Cc1ccc(S(=O)(=O)N2CCC(C(=O)N[C@@H]3C[C@H]3c3ccccc3)CC2)c(C)c1` [Compound 7-3], on Human sEH [1], the negative-log IC50 (pIC50) was 8.28. Besides, in data set [2], the CLint scaled is 90 mL/min/kg and the half-life was 14 min.

`Cc1ccc(S(=O)(=O)N2CCC(C(=O)NC3CCCCC3)CC2)c(C)c1` [Compound 7-6]: in data set [2], the CLint scaled is 90 mL/min/kg and the half-life came out at 14 min.

`Cc1ccc(S(=O)(=O)N2CCC(C(=O)NC3CCCc4ccccc43)CC2)c(C)c1` (centres unmarked) [Compound 7-8] showed a pIC50 at Human sEH [1] of 9.22.

Take `Cc1ccc(S(=O)(=O)N2CCC(C(=O)NCC3CCCCC3)CC2)c(C)c1` [Compound 7-9]: in data set [2], the CLint scaled stood at 520 mL/min/kg and the half-life is 2.4 min.

On Human sEH [1], `Cc1ccc(S(=O)(=O)N2CCC(C(=O)NC34CC5CC(CC(C5)C3)C4)CC2)c(C)c1` [Compound 7-11] gave a negative logarithm of the IC50 (pIC50) of 8.07. Moreover, in data set [2], the CLint scaled is 340 mL/min/kg and the half-life came to 3.7 min.

For `Cc1ccc(S(=O)(=O)N2CCC(C(=O)Nc3ccccc3)CC2)c(C)c1` [Compound 7-12], at Human sEH [1], the pIC50 was 7.64.

`Cc1ccc(S(=O)(=O)N2CCC(C(=O)Nc3ccccc3F)CC2)c(C)c1` [Compound 7-13]: the negative-log IC50 (pIC50) at Human sEH [1] was 7.70.

`Cc1ccc(S(=O)(=O)N2CCC(C(=O)Nc3ccccc3Cl)CC2)c(C)c1` [Compound 7-14]: the negative logarithm of the IC50 (pIC50) at Human sEH [1] was 6.60.

For `Cc1ccc(S(=O)(=O)N2CCC(C(=O)Nc3ccccc3Br)CC2)c(C)c1` [Compound 7-15], on Human sEH [1], the pIC50 was 7.52.

For the compound `Cc1ccc(S(=O)(=O)N2CCC(C(=O)Nc3ccccc3C)CC2)c(C)c1` [Compound 7-16], the pIC50 against Human sEH [1] is 6.19.

In turn, `Cc1ccc(S(=O)(=O)N2CCC(C(=O)Nc3ccccc3O)CC2)c(C)c1` [Compound 7-17] had a pIC50 against Human sEH [1] of 5.66.

Regarding `Cc1ccc(S(=O)(=O)N2CCC(C(=O)Nc3ccc(O)cc3)CC2)c(C)c1` [Compound 7-19], the negative logarithm of the IC50 (pIC50) on Human sEH [1] was 7.26.

Consider `Cc1ccc(S(=O)(=O)N2CCC(C(=O)Nc3ccc(Oc4ccccc4)cc3)CC2)c(C)c1` [Compound 7-20], for which, at Human sEH [1], the pIC50 is 8.22. Besides, in data set [2], the CLint scaled turned out to be 120 mL/min/kg and the half-life is 11 min.

With `COC(=O)c1ccc(NC(=O)C2CCN(S(=O)(=O)c3ccc(C)cc3C)CC2)cc1` [Compound 7-21], the pIC50 against Human sEH [1] was 7.89.

At Human sEH [1], `Cc1ccc(S(=O)(=O)N2CCC(C(=O)Nc3ccc(C(=O)O)cc3)CC2)c(C)c1` [Compound 7-22] gave a negative-log IC50 (pIC50) of 6.96.

On Human sEH [1], `Cc1ccc(S(=O)(=O)N2CCC(C(=O)Nc3ccc(OC(F)(F)F)cc3)CC2)c(C)c1` [Compound 7-23] had a pIC50 of 8.28. In addition, in data set [2], the CLint scaled is 28 mL/min/kg and the half-life was 46 min.

In turn, `Cc1ccc(S(=O)(=O)N2CCC(C(=O)Nc3ccc([N+](=O)[O-])cc3)CC2)c(C)c1` [Compound 7-24] gave a pIC50 against Human sEH [1] of 8.34. Moreover, in data set [2], the intrinsic metabolic clearance (CLint scaled) is 7 mL/min/kg and the half-life is 180 min.

On Human sEH [1], `Cc1ccc(S(=O)(=O)N2CCC(C(=O)Nc3ccc(N4CCCCC4)cc3)CC2)c(C)c1` [Compound 7-25] had a pIC50 of 7.54. Also, the “in vitro metabolic stability in human liver microsomes, in words” value (“in vitro metabolic stability” below) in data set [2] is on record as “intermediate metabolic profiles”.

Consider `Cc1ccc(S(=O)(=O)N2CCC(C(=O)Nc3ccc(N4CCCCC4)c(C(N)=O)c3)CC2)c(C)c1` [Compound 7-26], for which the pIC50 against Human sEH [1] is 6.99. Further, in data set [2], the “in vitro metabolic stability” value is “intermediate metabolic profiles”.

`Cc1ccc(S(=O)(=O)N2CCC(C(=O)Nc3ccc(N4CCOCC4)cc3)CC2)c(C)c1` [Compound 7-27] gave a pIC50 against Human sEH [1] of 7.39.

`Cc1ccc(S(=O)(=O)N2CCC(C(=O)Nc3ccc(C(C)C)cc3)CC2)c(C)c1` [Compound 7-28] showed a pIC50 at Human sEH [1] of 8.55.

In the case of `Cc1ccc(S(=O)(=O)N2CCC(C(=O)Nc3ccc(C(F)(F)F)cc3)CC2)c(C)c1` [Compound 7-29], on Human sEH [1], the negative-log IC50 (pIC50) is 8.16.

For the compound `Cc1ccc(S(=O)(=O)N2CCC(C(=O)Nc3ccc(S(=O)(=O)C(F)(F)F)cc3)CC2)c(C)c1` [Compound 7-30], on Human sEH [1], the pIC50 was 8.06.

For `Cc1ccc(S(=O)(=O)N2CCC(C(=O)Nc3cccc(C(F)(F)F)c3)CC2)c(C)c1` [Compound 7-31], the negative logarithm of the IC50 (pIC50) at Human sEH [1] was 7.70.

As to `Cc1ccc(S(=O)(=O)N2CCC(C(=O)Nc3ccc(F)cc3)CC2)c(C)c1` [Compound 7-32], the pIC50 against Human sEH [1] was 7.60.

In turn, `Cc1ccc(S(=O)(=O)N2CCC(C(=O)Nc3ccc(Cl)cc3)CC2)c(C)c1` [Compound 7-33] showed a pIC50 against Human sEH [1] of 7.70.

Take `Cc1ccc(S(=O)(=O)N2CCC(C(=O)Nc3ccc(Br)cc3)CC2)c(C)c1` [Compound 7-34]: the negative logarithm of the IC50 (pIC50) at Human sEH [1] was 7.77.

Compound `Cc1ccc(S(=O)(=O)N2CCC(C(=O)Nc3cc(Cl)cc(Cl)c3)CC2)c(C)c1` [Compound 7-35] showed a pIC50 at Human sEH [1] of 7.92.

Regarding `Cc1ccc(S(=O)(=O)N2CCC(C(=O)Nc3ccc(Cl)c(C(F)(F)F)c3)CC2)c(C)c1` [Compound 7-36], at Human sEH [1], the pIC50 was 7.37.

Take `Cc1ccc(S(=O)(=O)N2CCC(C(=O)Nc3ccc(Cl)c(Cl)c3)CC2)c(C)c1` [Compound 7-37]: at Human sEH [1], the pIC50 was 8.17. For the same compound, in data set [2], the CLint scaled was 50 mL/min/kg and the half-life was found to be 25 min.

On Human sEH [1], `Cc1ccc(S(=O)(=O)N2CCC(C(=O)Nc3ccc4ccccc4c3)CC2)c(C)c1` [Compound 7-38] had a pIC50 of 8.80. Moreover, in data set [2], the CLint scaled was 35 mL/min/kg and the half-life was determined as 36 min.

Compound `Cc1ccc(S(=O)(=O)N2CCC(C(=O)Nc3cnc4ccccc4c3)CC2)c(C)c1` [Compound 7-40] showed a pIC50 against Human sEH [1] of 7.35.

On Human sEH [1], `Cc1ccc(S(=O)(=O)N2CCC(C(=O)Nc3ccc4ncccc4c3)CC2)c(C)c1` [Compound 7-41] showed a pIC50 of 7.11.

Take `COC(=O)c1ccc2cc(NC(=O)C3CCN(S(=O)(=O)c4ccc(C)cc4C)CC3)ccc2c1` [Compound 7-43]: on Human sEH [1], the pIC50 was 8.64.

Turning to `Cc1ccc(S(=O)(=O)N2CCC(C(=O)Nc3ccc4cc(C(=O)O)ccc4c3)CC2)c(C)c1` [Compound 7-44], the negative-log IC50 (pIC50) at Human sEH [1] was 7.64. For the same compound, in data set [2], the “in vitro metabolic stability” value is listed as “excellent in vitro metabolic stability”; the CLint scaled was 5.6 mL/min/kg; the half-life amounted to 220 min.

`Cc1ccc(S(=O)(=O)N2CCC(C(=O)Nc3ccc4c(c3)OCO4)CC2)c(C)c1` [Compound 7-45] had a pIC50 against Human sEH [1] of 9.22. Also, in data set [2], the CLint scaled is 35 mL/min/kg and the half-life is 36 min.

For `Cc1ccc(S(=O)(=O)N2CCC(C(=O)NC34CC5CC(CC(C5)C3)C4)CC2)c(C)c1` [Compound 2535], on Human sEH [3], the negative logarithm of the IC50 (pIC50) was 8.07.

As for `Cc1ccc(S(=O)(=O)N2CCC(C(=O)NC3C[C@@H]3c3ccccc3)CC2)c(C)c1` (some centres unmarked) [Compound 2536], the pIC50 at Human sEH [3] was 8.28.

Compound `Cc1ccc(S(=O)(=O)N2CCC(C(=O)Nc3ccc4cc(C(=O)O)ccc4c3)CC2)c(C)c1` [Compound 2590] gave a negative logarithm of the IC50 (pIC50) at Human sEH [3] of 7.63.
